{
  "source": "patent US20250282812A1",
  "about": "“ANTIVIRAL NUCLEOSIDE ANALOGUE, AND PHARMACEUTICAL COMPOSITION AND USE THEREOF” (SHANGHAI INSTITUTE OF MATERIA MEDICA , CHINESE ACADEMY OF …, priority 2022, published 2025)",
  "key": {"[1]": {"tested_on": "respiratory syncytial virus (RSV) A long strain", "experiment": "In vitro activity against respiratory syncytial virus (CPE, CCK8, HEp-2 cells)", "type": "cell-based", "conditions": "human respiratory syncytial virus, 120 h, MOI=0.02, 5 days"}, "SFTSV-Nluc [2]": {"tested_on": "SFTSV-Nluc", "experiment": "microbe, parasite or virus in culture", "type": "cell-based, severe fever with thrombocytopenia syndrome virus (SFTSV)", "conditions": "Severe fever with thrombocytopenia syndrome virus, Vero, 48 h"}, "SFTSV-Nluc [3]": {"tested_on": "SFTSV-Nluc", "set-up": "species or system A129 mice", "conditions": "mouse"}, "[4]": {"tested_on": "influenza virus (IFV) A/California/07/2009 (H1N1) pdm09 strain", "experiment": "In vitro activity against influenza virus (CPE, CCK8, MDCK cells)", "type": "cell-based", "conditions": "120 h, read-out: IFV (MDCK) EC50"}, "[5]": {"experiment": "Pharmacokinetic evaluation in cynomolgus monkeys (Test Example 5)", "type": "in vivo", "conditions": "cynomolgus monkey, nucleoside X28-1 in plasma, male cynomolgus monkeys, single iv 1.0 mg/kg", "protocol": "Male cynomolgus monkeys were fasted for 12 h before intragastric administration, with free access to water, and were fed together 2 h after administration. X28-1 was intravenously administered at a dose of 1.0 mg/kg (n=3) and intragastrically administered at a dose of 5.0 mg/kg (n=3), and X219 hydrochloride was intragastrically administered at a dose of 10.7 mg/kg (n=3), with a vehicle for the compounds of 5% DMSO+5% enthanol+40% PEG400+50% saline. 0.5 mL of blood was collected via the forelimb vein at 5 min (intravenous only), 0.25 h, 0.5 h, 1.0 h, 2.0 h, 4.0 h, 6.0 h, 8.0 h, and 24.0 h after administration. The blood samples were transferred into heparin sodium anticoagulation tubes, gently shaken and mixed uniformly, put on ice, and immediately centrifuged (4° C., 2000 g, 10 min). After centrifugation, 100 μL of plasma was accurately pipetted and added to a plastic tube containing 400 μL of methanol solution with an internal standard, temporarily stored on dry ice after being vortexed, and then stored in an ultra-low temperature refrigerator for later detection. The concentration of nucleoside X28-1 in the plasma was determined by the LC-MS-MS method and pharmacokinetic parameters were calculated."}, "[6]": {"tested_on": "respiratory syncytial virus (RSV A2)", "experiment": "In vivo efficacy for respiratory syncytial virus (RSV) in mice"}, "[7]": {"experiment": "Pharmacokinetic evaluation in rats (Test Example 1)", "type": "in vivo", "conditions": "rat, nucleoside X28-1 in plasma, male SD rats, single iv 10.0 mg/kg", "protocol": "Male SD rats, divided into intravenous (iv) and intragastric (po) groups, were fasted for 16 h before the experiment (the intravenous group was not fasted), with free access to water, and were fed together 2 h after administration. Compound X28-1 was intravenously injected at a dose of 10.0 mg/kg (n=3), and compounds X22, X51, and X102 (n=3) were intragastrically administered in equimolar amounts to X28-1, which were 15.5 mg/kg, 16.5 mg/kg, and 16.6 mg/kg, respectively, with a vehicle of 5% DMSO+5% enthanol+40% PEG400+50% saline. 0.2-0.3 mL of blood was collected via the jugular vein at 5 min (intravenous only), 0.25 h, 0.5 h, 1.0 h, 2.0 h, 4.0 h, 6.0 h, 8.0 h, and 24 h after administration. The blood samples were transferred into heparin sodium anticoagulation tubes, gently mixed uniformly, and centrifuged at 2000 g for 10 min. Plasma was isolated and frozen in a refrigerator at −70° C. for later detection. The concentration of nucleoside X28-1 in the plasma was determined by the LC-MS-MS method and pharmacokinetic parameters were calculated."}, "[8]": {"tested_on": "wild-type SFSV virus (SFTSV-WT)", "type": "in vivo", "conditions": "A129 mice infected with SFTSV-WT; X28-1 20 mpk intragastric once daily Day 0 to Day 6"}, "[9]": {"experiment": "Pharmacokinetic evaluation in rats (Test Example 2)", "type": "in vivo", "conditions": "rat, nucleoside X28-1 in plasma, male SD rats, single iv 5.0 mg/kg", "protocol": "A total of 12 male SD rats, divided into intravenous (IV) and intragastric (PO) groups, were fasted for 12 h before the experiment (the intravenous group was not fasted), with free access to water, and were fed together 2 h after administration. Compound X28-1 was intragastrically administered at a dose of 10.0 mg/kg (n=3) and intravenously injected at a dose of 5.0 mg/kg (n=3), and both compound X52 and compound X55 were intragastrically administered at a dose of 18.0 mg/kg (n=3), with a vehicle of 5% DMSO+5% enthanol+40% PEG400+50% saline. For the intravenous group, 0.2-0.3 mL of blood was collected via the jugular vein at 5 min, 0.25 h, 0.5 h, 1.0 h, 2.0 h, 4.0 h, 8.0 h, and 24.0 h after administration, and for the intragastric group, at 5 min, 0.5 h, 1.0 h, 2.0 h, 4.0 h, 6.0 h, 8.0 h, and 24.0 h after administration. The blood samples were transferred into heparin sodium anticoagulation tubes, gently mixed uniformly, and centrifuged at 2000 g for 10 min. Plasma was isolated and frozen in a refrigerator at −70° C. for later detection. The concentration of nucleoside X28-1 in the plasma was determined by the LC-MS-MS method and pharmacokinetic parameters were calculated."}, "in vitro": {"experiment": "in vitro", "conditions": "dog"}, "[10]": {"experiment": "Cytotoxicity in HEp-2 cells (CCK8)", "conditions": "human"}, "[11]": {"experiment": "Stability test of compounds in solutions at different pH values"}},
  "data": [
    {"smiles": "O=c1ccn([C@@H]2O[C@](F)(CO)[C@@H](O)[C@H]2O)c(=O)[nH]1", "note": "[Compound X28-1, reference compound]", "values": [
      {"measurement": "EC50", "setting": "[1]", "value": 6.06, "unit": "µM"},
      {"measurement": "EC50", "setting": "SFTSV-Nluc [2]", "value": 0.8, "unit": "µM"},
      {"measurement": "inhibition at 10 µM", "setting": "SFTSV-Nluc [2]; read-out: Inhibition rate (10 μM)", "value": 95.3, "unit": "%"},
      {"measurement": "in vivo fluorescence imaging, fluorescence intensity on ventral and dorsal side", "setting": "SFTSV-Nluc [3]", "value": "negligible fluorescence intensity"},
      {"measurement": "change in the body weight", "setting": "SFTSV-Nluc [3]; in vivo, 20 mg/kg", "value": "no significant change"},
      {"measurement": "in vitro imaging of spleen, kidneys, liver and intestine: fluorescence intensity compared with the SFTSV-Nluc vehicle group", "setting": "SFTSV-Nluc [3]; in vivo, 20 mg/kg", "value": "significantly weaker"},
      {"measurement": "spleen/body weight ratio and kidney/body weight ratio", "setting": "SFTSV-Nluc [3]; in vivo, 20 mg/kg", "value": "consistent with those in the blank control group"},
      {"measurement": "survival rate", "setting": "SFTSV-Nluc [3]; in vivo, 20 mg/kg", "value": 100, "unit": "%"},
      {"measurement": "viral titer and copy number in the spleen and kidney compared with the SFTSV-Nluc vehicle group", "setting": "SFTSV-Nluc [3]; in vivo, 20 mg/kg", "value": "significantly reduced"},
      {"measurement": "EC50", "setting": "[4]", "value": "< 0.37", "unit": "µM"},
      {"measurement": "AUC(0-inf)", "setting": "[5]", "value": 3720, "unit": "ng·h/mL"},
      {"measurement": "AUC(0-t)", "setting": "[5]", "value": 3610, "unit": "ng·h/mL"},
      {"measurement": "half-life", "setting": "[5]", "value": 5.38, "unit": "h"},
      {"measurement": "MRT inf", "setting": "[5]; read-out: MRT0-∞", "value": 4.21, "unit": "h"},
      {"measurement": "reduction in the pulmonary viral load compared with the vehicle group", "setting": "[6]; 10 mpk intragastric once daily, Day 4", "value": "about 0.4 log10"},
      {"measurement": "change in the body weight", "setting": "[6]; RSV A2-infected BALB/C mice, X219 hydrochloride 20 mpk or X28-1 10 mpk intragastric once daily", "value": "began to show an increase in the body weight on Day 3"},
      {"measurement": "AUC(0-inf)", "setting": "[7]", "value": 22100, "unit": "ng·h/mL"},
      {"measurement": "AUC(0-t)", "setting": "[7]", "value": 20000, "unit": "ng·h/mL"},
      {"measurement": "Cmax", "setting": "[7]", "value": 8080, "unit": "ng/mL"},
      {"measurement": "half-life", "setting": "[7]", "value": 6.9, "unit": "h"},
      {"measurement": "MRT inf", "setting": "[7]; read-out: MRT0-∞", "value": 8.33, "unit": "h"},
      {"measurement": "change in the body weight", "setting": "[8]", "value": "no significant change"},
      {"measurement": "survival rate", "setting": "[8]", "value": 100, "unit": "%"},
      {"measurement": "AUC(0-inf)", "setting": "[9]", "value": 8690, "unit": "ng·h/mL"},
      {"measurement": "AUC(0-t)", "setting": "[9]", "value": 8290, "unit": "ng·h/mL"},
      {"measurement": "Cmax", "setting": "[9]", "value": 2620, "unit": "ng/mL"},
      {"measurement": "half-life", "setting": "[9]", "value": 6.09, "unit": "h"},
      {"measurement": "MRT inf", "setting": "[9]; read-out: MRT0-∞", "value": 6.89, "unit": "h"},
      {"measurement": "CC50", "setting": "in vitro", "value": "> 10", "unit": "µM"},
      {"measurement": "CC50 at 5 days", "setting": "[10]", "value": "> 10", "unit": "µM"},
      {"measurement": "Content reduction (%)", "setting": "[11]; buffered saline solution pH 4.0, 3 h", "value": 5.7, "unit": "%"},
      {"measurement": "Content reduction (%)", "setting": "[11]; buffered saline solution pH 4.0, 6 h", "value": 12.2, "unit": "%"},
      {"measurement": "Content reduction (%)", "setting": "[11]; buffered saline solution pH 4.0, 9 h", "value": 17.5, "unit": "%"},
      {"measurement": "Content reduction (%)", "setting": "[11]; buffered saline solution pH 4.0, 12 h", "value": 22.2, "unit": "%"},
      {"measurement": "Content reduction (%)", "setting": "[11]; buffered saline solution pH 4.0, 15 h", "value": 26.9, "unit": "%"},
      {"measurement": "Content reduction (%)", "setting": "[11]; buffered saline solution pH 4.0, 18 h", "value": 30.3, "unit": "%"},
      {"measurement": "Content reduction (%)", "setting": "[11]; buffered saline solution pH 4.0, 21 h", "value": 35.9, "unit": "%"},
      {"measurement": "Content reduction (%)", "setting": "[11]; buffered saline solution pH 4.0, 24 h", "value": 40.1, "unit": "%"},
      {"measurement": "Content reduction (%)", "setting": "[11]; buffered saline solution pH 6.8, 3 h", "value": 8.0, "unit": "%"},
      {"measurement": "Content reduction (%)", "setting": "[11]; buffered saline solution pH 6.8, 6 h", "value": 15.3, "unit": "%"},
      {"measurement": "Content reduction (%)", "setting": "[11]; buffered saline solution pH 6.8, 9 h", "value": 22.0, "unit": "%"},
      {"measurement": "Content reduction (%)", "setting": "[11]; buffered saline solution pH 6.8, 12 h", "value": 28.3, "unit": "%"},
      {"measurement": "Content reduction (%)", "setting": "[11]; buffered saline solution pH 6.8, 15 h", "value": 33.4, "unit": "%"},
      {"measurement": "Content reduction (%)", "setting": "[11]; buffered saline solution pH 6.8, 18 h", "value": 38.0, "unit": "%"},
      {"measurement": "Content reduction (%)", "setting": "[11]; buffered saline solution pH 6.8, 21 h", "value": 42.9, "unit": "%"},
      {"measurement": "Content reduction (%)", "setting": "[11]; buffered saline solution pH 6.8, 24 h", "value": 46.9, "unit": "%"}
    ]}
  ]
}
